{
  "source": "patent US20240197760A1",
  "about": "“ACTIVATORS OF INTEGRATED STRESS RESPONSE PATHWAY FOR PROTECTION AGAINST FERROPTOSIS” (Burke Neurological Institute, priority 2021, published 2024)",
  "key": {"5×FAD mice": {"test_system": "5×FAD mice", "assay": "Intracerebroventricular Alzet pump infusion in 5×FAD and wild type mice: Bdnf, LTP, Y-maze, Morris water maze", "type": "in vivo, mouse", "description": "All animal procedures were approved by the Weill Cornell Medicine Institutional Animal Care and Use Committee (Animal protocol: 2014-0029) and conducted in accordance with the NIH Guide for the Care and Use of Laboratory Animals and ARRIVE guidelines. We used C57/BL6 mice for the induction of ischemic stroke and hemorrhagic stroke. 8-10 weeks old female pregnant CD1 mice were used for primary neuronal culture. Ppp1R15b^flox/flox mice were obtained from Ann-Hwee Lee's group currently working at Regeneron and were bred at Burke Neurological Institute. The genotypes of Ppp1R15b^flox/flox mice were assessed with PCR using DNA isolated from clipped tails of mice. Twelve weeks old male Ppp1R15b^flox/flox mice were used for inactivation of R15b regulatory subunit of protein phosphatase 1 in the hippocampus through AAV8 GFP or Cre intracranial injection. In the current study, 5×FAD mouse was used as a model of AD as this model represents pathological characteristics seen in both genetic as well as sporadic forms of AD. 5×FAD mice (B6/SJL genetic background) was purchased from Jackson's laboratory and was maintained by breeding male heterozygous transgenic mice with wild type female mice. The 5×FAD mice express human APP and PSEN1 transgenes with a total of five AD-linked mutations: the Swedish (K670N/M671L), Florida (I716V), and London (V717I) mutations in APP, and the M146L and L286V mutations in PSEN1. In the current study, 6-7 months old 5×FAD mice were used for the Alzet mini osmotic pump implantation followed by memory assessment, LTP assessment, and gene expression studies.\nBrains were quickly removed from mice sacrificed by cervical dislocation and placed in cold artificial cerebrospinal fluid (ACSF) (bubbled with 95% O2/5% CO2) containing (in mM): 124 NaCl, 4 KCl, 1 Na2HPO4, 25 NaHCO3, 2 CaCl2, 2 MgCl2, and 10 glucose. The pH and osmolarity of the solution were 7.4 and 310 mOsm/L, respectively. The hippocampus was isolated and placed on a mechanical tissue chopper to produce transverse hippocampal slices of 400 μm thickness. Slices were maintained in a humidified interface chamber at 29° C. and continuously perfused (˜1 mL/min) with 95% O2/5% CO2-bubbled ACSF. Hippocampal slices were allowed to recover for at least 90 min prior to beginning the experiment. For recordings, glass electrodes were filled with ACSF and positioned in the CA1 stratum radiatum to record fEPSPs evoked by local stimulation (0.1 ms) of Schaffer collateral fibers using a bipolar concentric electrode placed laterally to the recording electrode (˜150 μm). For LTP recordings, the voltage intensity of the stimulation test pulse (square pulse, 100 us duration) for each slice was determined to be the voltage intensity that had generated 30-40% of the maximum slope obtained using input-output relationships. Facilitation was calculated as the ratio of the slopes of the second and first fEPSPs, and plotted as a function of the inter-pulse duration. For LTP, a test pulse was applied every minute. Following a steady baseline of 15 min, potentiation was induced with either 100 Hz for 1 s (weak stimulation) or 3 theta-burst stimulations (TBS; 15 s interval), each one involving a single train of 10 bursts at 5 Hz, where each burst is composed of 4 pulses at 100 Hz (strong stimulation). The fEPSP slopes following tetanic stimulation were normalized to the average of the slopes of the fEPSPs acquired during the baseline. Residual potentiation was calculated as the average of the last 15 min of 2 h of recordings.\nThe sterile Alzet mini osmotic pumps (Durect, pump model 1004) were filled with 100 μl of either saline or 2-deoxyglucose (10 μg/μl) and were incubated in saline for 24 h to allow the osmotic release of the drug. Thereafter, the pumps were attached properly with the plastic tubing provided in the brain infusion kit 2 3-5 mm (Durect, catalog number 0008663). We made an intracerebroventricular groove stereotaxically in the mouse brain. […]"}, "ICH mice": {"test_system": "ICH mice", "assay": "Collagenase-induced intracerebral hemorrhage (ICH), tape removal test", "type": "in vivo, mouse", "details": "10 mg/Kg i.p. from 24 h after collagenase, every day for 3 weeks; from day 7 onwards (days 7 and 21 vs saline)", "procedure": "To assess the effect of 2-DG on the Bdnf gene expression, mice were injected with either saline or 2-DG (10 mg/Kg) intraperitoneally for 6 h and then mice were euthanized properly, and hippocampi were dissected out from mice brain. In order to assess functional improvement with 2-DG treatment after ischemic stroke, mice were injected with 2-DG (10 mg/Kg) intraperitoneally 24 h after induction of the stroke and then every day for four weeks. For assessing functional improvement with 2-DG treatment after hemorrhagic stroke, mice were injected with 2-DG (10 mg/Kg) intraperitoneally 24 h after induction of the stroke and then every day for three weeks. ICH was induced as described before (Karuppagounder et al., 2016). Briefly, male C57BL/6 mice (8 to 10 weeks of age; Charles River) were anesthetized with isoflurane (2 to 5%) and placed on a stereotaxic frame. During the procedure, the animal's body temperature was maintained at 37° ° C. with a homeothermic blanket. […] of collagenase (0.075 IU; Sigma) was infused into the right striatum at a flow rate of […] with a nanomite syringe pump (Harvard Apparatus) and a Hamilton syringe. […] The time from which the tape was applied to when the mouse successfully removed it was recorded for each paw. […]"}, "[1]": {"test_system": "Trib3 promoter, Bdnf promoter", "assay": "Promoter reporter luciferase assay in primary neurons", "type": "cell-based, mouse", "details": "2-DG 9 h treatment, reporter in mouse primary neurons", "procedure": "Primary neurons were co-transfected with various plasmids such as different Bdnf exon promoters each tagged with firefly luciferase or Trib3 promoter tagged with firefly luciferase and pTK-renilla luciferase plasmid at 1:10 ratio using Lipofectamine 2000 (Thermo Fisher Scientific, catalog number—11668019) according to the manufacturer's instructions to control for transfection efficiency. […] Thereafter, luciferase activity was measured using dual luciferase assay kit (Promega) and bioluminometer (MDS Analytical Technologies). Final luciferase activity was calculated by normalizing firefly luciferase activity with Renilla luciferase activity and then the valued were converted to fold change with respect to control."}, "JTC-19 line": {"test_system": "JTC-19 line", "details": "JTC-19 lung cancer line; cited from earlier work"}, "[2]": {"details": "ICV Alzet pump, four weeks, wild type mice"}, "[3]": {"details": "ICV Alzet pump, four weeks, versus wild type mice treated with saline"}},
  "note": "Entries after “also recorded” stand apart in the source; their conditions may differ.",
  "data": [
    {"smiles": "OC[C@H]1OC(O)C[C@@H](O)[C@@H]1O", "note": "(stereo partly drawn) [2-DG, (4R,5S,6R)-6-(hydroxymethyl)oxane-2,4,5-triol]", "values": [
      {"measurement": "Bdnf gene expression in wild type mice", "setting": "5×FAD mice; [2]", "value": "didn't lead to nootropic upregulation"},
      {"measurement": "LTP in wild type mice", "setting": "5×FAD mice; [2]", "value": "didn't lead to nootropic upregulation"},
      {"measurement": "Morris water maze task in wild type mice", "setting": "5×FAD mice; [2]", "value": "did not show any nootropic increase"},
      {"measurement": "Y-maze task in wild type mice", "setting": "5×FAD mice; [2]", "value": "did not show any nootropic increase"},
      {"measurement": "LTP in hippocampal slices from 5×FAD mice", "setting": "5×FAD mice; ICV Alzet pump, four weeks, 5×FAD (saline) vs 5×FAD (2-DG) p=0.0194", "value": "normalized"},
      {"measurement": "Bdnf gene expression in 5×FAD mice", "setting": "5×FAD mice; [3]", "value": "normalized"},
      {"measurement": "spatial long-term memory in Morris water maze, 5×FAD mice", "setting": "5×FAD mice; [3]", "value": "normalized these memories"},
      {"measurement": "spatial short-term memory, spontaneous alternation test in Y-maze, 5×FAD mice", "setting": "5×FAD mice; [3]", "value": "normalized these memories"},
      {"measurement": "driving the adaptive plasticity program", "setting": "5×FAD mice; intracerebroventricular infusion at 1 g/Kg/day", "value": "sufficient in driving the adaptive plasticity program"},
      {"measurement": "tape removal test after hemorrhagic stroke", "setting": "ICH mice", "value": "significant improvement; also recorded: significant difference"},
      {"measurement": "Trib3 promoter activity with or without mutation in ATF4 binding site", "setting": "[1]", "value": "ATF4 binding site mutation completely blocked the 2-DG led induction of Trib3 promoter activity"},
      {"measurement": "Bdnf gene expression", "setting": "JTC-19 line", "value": "inhibit the Bdnf gene expression"}
    ]}
  ]
}
